ChEMBL document CHEMBL5523723, “G Protein-Coupled Estrogen Receptor-Mediated Anti-Inflammatory and Mucosal Healing Activity of a Trimethylpyridinol Analogue in Inflammatory Bowel Disease” (J Med Chem, 2024)
Active and inactive are the calls of the source. The rule behind the calls is not given here.

Key:
[1] = Inhibition of IL6 induced adhesion of TPA treated human U-937 cells to human HT-29 cells at 1 uM pretreated with HT-29 for 1 hr followed by U-937 addition along with IL6 stimulation for 3 hrs by fluorescence based microplate reader assay relative to control; format: functional; settings: time 4 hrs
[2] = system: U-937; test: Inhibition of TNFalpha induced adhesion of TPA treated human U-937 cells to human HT-29 cells at 1 uM pretreated with HT-29 for 1 hr followed by U-937 addition along with TNFalpha stimulation for 3 hrs by fluorescence based microplate reader assay relative to control; format: functional; settings: time 4 hrs
[3] = system: Rattus norvegicus; test: Antiinflammatory activity against TNBS-induced colitis in Sprague-Dawley rat model assessed as recovery of body weight at 300 mg/kg, po administered for 5 days; format: functional; settings: time 5 day
[4] = system: Mus musculus; test: Antiinflammatory activity against DSS-induced chronic colitis in C57BL/6N/Crl mouse model assessed as recovery of colon weight at 300 mg/kg, po administered daily 6 days per week for 5 weeks; format: functional
[5] = system: Rattus norvegicus; test: Antiinflammatory activity against TNBS-induced colitis in Sprague-Dawley rat model assessed as recovery of colon weight at 300 mg/kg, po administered for 5 days; format: functional; settings: time 5 day
[6] = system: Mus musculus; test: Antiinflammatory activity against DSS-induced chronic colitis in C57BL/6N/Crl mouse model assessed as recovery of body weight at 300 mg/kg, po administered daily 6 days per week for 5 weeks; format: functional
[7] = system: HT-29; test: Inhibition of TNFalpha induced nuclear translocation of NF-kappaB in human HT-29 cells at 10 uM pretreated with for 3 hrs followed by TNFalpha addition by Western blotting analysis; format: functional, cell-based
[8] = system: HT-29; test: Induction of apoptosis in human HT-29 cells assessed as early apoptotic cells at 5 uM incubated for 24 hrs by Annexin V FITC/PI staining based flow cytometry analysis ( Rvb = 0%); format: functional
[9] = system: HT-29; test: Inhibition of TNFalpha induced nuclear translocation of p-STAT3 in human HT-29 cells at 10 uM pretreated with for 3 hrs followed by TNFalpha addition by Western blotting analysis; format: functional, cell-based
[10] = system: U-937; test: Induction of apoptosis in human U-937 cells assessed as viable cells at 10 uM incubated for 24 hrs by Annexin V FITC/PI staining based flow cytometry analysis ( Rvb = 95.2 +/- 0.4%); format: functional; settings: read-out: Activity
[11] = system: U-937; test: Induction of apoptosis in human U-937 cells assessed as late apoptotic cells at 10 uM incubated for 24 hrs by Annexin V FITC/PI staining based flow cytometry analysis ( Rvb = 4 +/- 0.2%); format: functional
[12] = system: HT-29; test: Induction of apoptosis in human HT-29 cells assessed as viable cells at 10 uM incubated for 24 hrs by Annexin V FITC/PI staining based flow cytometry analysis ( Rvb = 99 +/- 0.1%); format: functional; settings: read-out: Activity
[13] = system: U-937; test: Induction of apoptosis in human U-937 cells assessed as early apoptotic cells at 1 uM incubated for 24 hrs by Annexin V FITC/PI staining based flow cytometry analysis ( Rvb = 0.6 +/- 0.1 %); format: functional
[14] = system: HT-29; test: Induction of apoptosis in human HT-29 cells assessed as late apoptotic cells at 5 uM incubated for 24 hrs by Annexin V FITC/PI staining based flow cytometry analysis ( Rvb = 0.7%); format: functional
[15] = system: U-937; test: Induction of apoptosis in human U-937 cells assessed as viable cells at 1 uM incubated for 24 hrs by Annexin V FITC/PI staining based flow cytometry analysis ( Rvb = 95.2 +/- 0.4%); format: functional; settings: read-out: Activity
[16] = system: HT-29; test: Induction of apoptosis in human HT-29 cells assessed as early apoptotic cells at 10 uM incubated for 24 hrs by Annexin V FITC/PI staining based flow cytometry analysis ( Rvb = 0%); format: functional
[17] = system: U-937; test: Induction of apoptosis in human U-937 cells assessed as late apoptotic cells at 5 uM incubated for 24 hrs by Annexin V FITC/PI staining based flow cytometry analysis ( Rvb = 4 +/- 0.2%); format: functional
[18] = system: HT-29; test: Induction of apoptosis in human HT-29 cells assessed as viable cells at 1 uM incubated for 24 hrs by Annexin V FITC/PI staining based flow cytometry analysis ( Rvb = 99 +/- 0.1%); format: functional; settings: read-out: Activity
[19] = system: HT-29; test: (§1) Mucosal healing effect in TNFalpha induced human HT-29 cells assessed as decrease in epithelial permeability by measuring reduced […] FITC-dextran 4 level at 10 uM pretreated with compound and G1 for 3 hrs followed by TNFalpha addition and subsequent FD4 addition and measured after 2 hrs by fluorescence based assay; format: functional, cell-based; settings: time 5.0 hrs
[20] = system: U-937; test: Induction of apoptosis in human U-937 cells assessed as early apoptotic cells at 10 uM incubated for 24 hrs by Annexin V FITC/PI staining based flow cytometry analysis ( Rvb = 0.6 +/- 0.1 %); format: functional
[21] = system: HT-29; test: Induction of apoptosis in human HT-29 cells assessed as late apoptotic cells at 10 uM incubated for 24 hrs by Annexin V FITC/PI staining based flow cytometry analysis ( Rvb = 0.7%); format: functional
[22] = system: U-937; test: Induction of apoptosis in human U-937 cells assessed as early apoptotic cells at 5 uM incubated for 24 hrs by Annexin V FITC/PI staining based flow cytometry analysis ( Rvb = 0.6 +/- 0.1 %); format: functional
[23] = system: HT-29; test: Induction of apoptosis in human HT-29 cells assessed as early apoptotic cells at 1 uM incubated for 24 hrs by Annexin V FITC/PI staining based flow cytometry analysis ( Rvb = 0%); format: functional
[24] = system: HT-29; test: Induction of apoptosis in human HT-29 cells assessed as late apoptotic cells at 1 uM incubated for 24 hrs by Annexin V FITC/PI staining based flow cytometry analysis ( Rvb = 0.7%); format: functional
[25] = system: U-937; test: Induction of apoptosis in human U-937 cells assessed as necrotic cells at 1 uM incubated for 24 hrs by Annexin V FITC/PI staining based flow cytometry analysis ( Rvb = 0.2 +/- 0.1%); format: functional
[26] = system: HT-29; test: Induction of apoptosis in human HT-29 cells assessed as necrotic cells at 10 uM incubated for 24 hrs by Annexin V FITC/PI staining based flow cytometry analysis ( Rvb = 0.2%); format: functional
[27] = system: U-937; test: Induction of apoptosis in human U-937 cells assessed as viable cells at 5 uM incubated for 24 hrs by Annexin V FITC/PI staining based flow cytometry analysis ( Rvb = 95.2 +/- 0.4%); format: functional; settings: read-out: Activity
[28] = system: HT-29; test: as §1, with “at 0.1 to” for “at”, “pretreated” for “pretreated with compound and G1”; format: functional, cell-based; settings: dose 0.1-10 µM, time 5.0 hrs
[29] = system: U-937; test: Induction of apoptosis in human U-937 cells assessed as late apoptotic cells at 1 uM incubated for 24 hrs by Annexin V FITC/PI staining based flow cytometry analysis ( Rvb = 4 +/- 0.2%); format: functional
[30] = system: HT-29; test: Induction of apoptosis in human HT-29 cells assessed as necrotic cells at 1 uM incubated for 24 hrs by Annexin V FITC/PI staining based flow cytometry analysis ( Rvb = 0.2%); format: functional
[31] = system: HT-29; test: Induction of apoptosis in human HT-29 cells assessed as necrotic cells at 5 uM incubated for 24 hrs by Annexin V FITC/PI staining based flow cytometry analysis ( Rvb = 0.2%); format: functional
[32] = system: U-937; test: Induction of apoptosis in human U-937 cells assessed as necrotic cells at 10 uM incubated for 24 hrs by Annexin V FITC/PI staining based flow cytometry analysis( Rvb = 0.2 +/- 0.1%); format: functional
[33] = system: HT-29; test: Induction of apoptosis in human HT-29 cells assessed as viable cells at 5 uM incubated for 24 hrs by Annexin V FITC/PI staining based flow cytometry analysis ( Rvb = 99 +/- 0.1%); format: functional; settings: read-out: Activity
[34] = system: U-937; test: Induction of apoptosis in human U-937 cells assessed as necrotic cells at 5 uM incubated for 24 hrs by Annexin V FITC/PI staining based flow cytometry analysis ( Rvb = 0.2 +/- 0.1%); format: functional
[35] = system: HT-29; test: as §1, with “G15” for “G1”; format: functional, cell-based; settings: time 5.0 hrs

COc1ccc(C(=O)Nc2nc(C)c(O)c(C)c2C)cc1
inhibition at 1 µM [1]: 6.5%

Cc1nc(NC(=O)c2ccoc2)c(C)c(C)c1O
inhibition at 1 µM [1]: 54.1%
inhibition at 1 µM [2]: 60.3%

Cc1ccc(C(=O)Nc2nc(C)c(O)c(C)c2C)cc1F
inhibition at 1 µM [1]: 59.5%
inhibition at 1 µM [2]: 68.2%

Cc1nc(NC(=O)c2ccc(C(C)(C)C)cc2)c(C)c(C)c1O
inhibition at 1 µM [1]: 29.4%

Nc1ccc(O)c(C(=O)O)c1 [MESALAMINE]
inhibition at 1 µM [1]: 1.7%
inhibition at 1 µM [2]: 9.9%

Cc1nc(NC(=O)c2ccc(Cl)cc2Cl)c(C)c(C)c1O
inhibition at 1 µM [1]: 46.4%
inhibition at 1 µM [2]: 58.6%

Cc1nc(NC(=O)c2ccc(F)cc2F)c(C)c(C)c1O
inhibition at 1 µM [1]: 62.4%
inhibition at 1 µM [2]: 71.4%

Cc1nc(NC(=O)c2ccccc2F)c(C)c(C)c1O
inhibition at 1 µM [1]: 66.4%
inhibition at 1 µM [2]: 36.4%

Cc1nc(NC(=O)c2ccc(F)cc2)c(C)c(C)c1O
inhibition at 1 µM [1]: 5.5%

Cc1cccc(C(=O)Nc2nc(C)c(O)c(C)c2C)c1
inhibition at 1 µM [1]: 48.9%
inhibition at 1 µM [2]: 63.9%

Cc1nc(NC(=O)c2c(C)noc2C)c(C)c(C)c1O
inhibition at 1 µM [1]: 74%
inhibition at 1 µM [2]: 85%

COc1ccc(C(=O)Nc2nc(C)c(O)c(C)c2C)c(OC)c1
inhibition at 1 µM [1]: 19.1%
inhibition at 1 µM [2]: 30.9%

O=C(O)c1cc(/N=N/c2ccc(S(=O)(=O)Nc3ccccn3)cc2)ccc1O [SULFASALAZINE]
Activity [3]: 58.3%
Activity [4]: 66.9%
Activity [5]: 78.4%
Activity [6]: 22.8%

CC(=O)c1ccc2c(c1)[C@@H]1C=CC[C@@H]1[C@H](c1cc3c(cc1Br)OCO3)N2
inhibition [7]: Active
Activity [8]: 2.9%
inhibition [9]: Active
viability at 10 µM [10]: 53.2%
Activity [11]: 39.2%
viability at 10 µM [12]: 61.4%
Activity [13]: 7%
Activity [14]: 27.9%
viability at 1 µM [15]: 76.2%
Activity [16]: 4.3%
Activity [17]: 28.2%
viability at 1 µM [18]: 80.9%
Activity [19]: Active
Activity [20]: 7.2%
Activity [21]: 33.3%
Activity [22]: 5.5%
Activity [23]: 1%
Activity [24]: 16.9%
Activity [25]: 0.6%
Activity [26]: 1%
viability at 5 µM [27]: 66.6%
Activity [28]: Active
Activity [29]: 16.2%
Activity [30]: 1.3%
Activity [31]: 2.7%
Activity [32]: 0.4%
viability at 5 µM [33]: 66.6%
Activity [34]: 0.3%

Cc1nc(NC(=O)c2ccccc2)c(C)c(C)c1O
inhibition at 1 µM [1]: 44.1%

Brc1cc2c(cc1[C@@H]1Nc3ccccc3[C@@H]3C=CC[C@@H]31)OCO2
Activity [8]: 1%
viability at 10 µM [10]: 65.7%
Activity [11]: 27.9%
viability at 10 µM [12]: 79.7%
Activity [35]: inactive
Activity [13]: 6.8%
Activity [14]: 13.1%
viability at 1 µM [15]: 79.6%
Activity [16]: 2.4%
Activity [17]: 18.3%
viability at 1 µM [18]: 86.4%
Activity [20]: 6.2%
Activity [21]: 17.1%
Activity [22]: 6.5%
Activity [23]: 1.6%
Activity [24]: 10.4%
Activity [25]: 0.5%
Activity [26]: 0.7%
viability at 5 µM [27]: 74.6%
Activity [28]: inactive
Activity [29]: 13.1%
Activity [30]: 1.6%
Activity [31]: 1.6%
Activity [32]: 0.3%
viability at 5 µM [33]: 84.2%
Activity [34]: 0.7%
